Laboratory results from ChEMBL document CHEMBL6103619, “Discovery of a Novel CRBN-Recruiting cGAS PROTAC Degrader for the Treatment of Ulcerative Colitis” (J Med Chem, 2025).
Activity calls are given as the source filed them. The rule behind the calls is not given here.

How the values were obtained:
[1] = target: T1, Protein cereblon/Cyclic GMP-AMP synthase (Homo sapiens, UniProt Q96SW2+Q8N884); assay: PROTAC activity at CRBN/cGAS in human THP-1 cells assessed as induction of cGAS degradation at 10 uM incubated for 48 hrs by Western blot analysis; format: cell-based
[2] = target: T1, Protein cereblon/Cyclic GMP-AMP synthase; assay: PROTAC activity at CRBN/cGAS in human THP-1 cells assessed as induction of cGAS degradation at 10 uM preincubated with compound for 40 hrs followed by HT-DNA stimulation and measured after 8 hrs by Western blot analysis relative to control; format: cell-based; details: time 48.0 hrs
[3] = Inhibition of dsDNA-induced cGAS signaling pathway in human THP1-Lucia ISG cells preincubated with compound for 24 hrs followed by HT-DNA addition and measured after 24 hrs by QUANTI-Luc luciferase reagent based assay; format: cell-based
[4] = Inhibition of dsDNA-induced cGAS signaling pathway in mouse RAW-Lucia ISG cells preincubated with compound for 24 hrs followed by HT-DNA addition and measured after 24 hrs by QUANTI-Luc luciferase reagent based assay; format: cell-based
THP-1 [5] = assay: Induction of cGAS degradation in human THP-1 cells at 10 uM preincubated with compound for 40 hrs followed by HT-DNA stimulation and measured after 8 hrs by Western blot analysis relative to control; format: cell-based; details: time 48.0 hrs
THP-1 [6] = assay: Cytotoxicity against human THP-1 cells assessed as reduction in cell viability at >30 uM incubated for 48 hrs by CCK8 assay; format: toxicity, cell-based; details: thp-1, 48 h
[7] = target: T2, Protein cereblon/Cyclic GMP-AMP synthase (Mus musculus) (UniProt Q8C6L5+Q8C7D2); assay: In vivo inhibition of cGAS signaling pathway in DSS-induced ulcerative colitis C57BL/6 mouse model assessed as reduction in cGAS protein level in colon at 50 mg/kg/day, ip preadministered with DSS for 7 days followed by replacement with ultrapure water for 3 days with subsequent compound administration starting from day 4 to 10 and measured on day 11 by Western blot analysis; format: functional, organism-based; details: time 8.0 day
Mus musculus [8] = assay: Anti-inflammatory activity in DSS-induced ulcerative colitis C57BL/6 mouse model assessed as reduction in NET generation by measuring reduction in citH3 level in colon at 50 mg/kg/day, ip preadministered with DSS for 7 days followed by replacement with ultrapure water for 3 days with subsequent compound administration starting from day 4 to 10 and measured on day 11 by Western blot analysis; format: functional, organism-based; details: time 8.0 day
[9] = target: T2, Protein cereblon/Cyclic GMP-AMP synthase (Mus musculus); assay: In vivo inhibition of cGAS signaling pathway in DSS-induced ulcerative colitis C57BL/6 mouse model assessed as reduction in cGAS protein level in colon at 200 mg/kg/day, po preadministered with DSS for 7 days followed by replacement with ultrapure water for 3 days with subsequent compound administration starting from day 4 to 10 and measured on day 11 by Western blot analysis; format: functional, organism-based; details: time 8.0 day
Mus musculus [10] = assay: Anti-inflammatory activity in DSS-induced ulcerative colitis C57BL/6 mouse model assessed as reduction in NET generation by measuring reduction in citH3 level in colon at 200 mg/kg/day, po preadministered with DSS for 7 days followed by replacement with ultrapure water for 3 days with subsequent compound administration starting from day 4 to 10 and measured on day 11 by Western blot analysis; format: functional, organism-based; details: time 8.0 day

T1 sequence (Q8N884 whole entry, looked up): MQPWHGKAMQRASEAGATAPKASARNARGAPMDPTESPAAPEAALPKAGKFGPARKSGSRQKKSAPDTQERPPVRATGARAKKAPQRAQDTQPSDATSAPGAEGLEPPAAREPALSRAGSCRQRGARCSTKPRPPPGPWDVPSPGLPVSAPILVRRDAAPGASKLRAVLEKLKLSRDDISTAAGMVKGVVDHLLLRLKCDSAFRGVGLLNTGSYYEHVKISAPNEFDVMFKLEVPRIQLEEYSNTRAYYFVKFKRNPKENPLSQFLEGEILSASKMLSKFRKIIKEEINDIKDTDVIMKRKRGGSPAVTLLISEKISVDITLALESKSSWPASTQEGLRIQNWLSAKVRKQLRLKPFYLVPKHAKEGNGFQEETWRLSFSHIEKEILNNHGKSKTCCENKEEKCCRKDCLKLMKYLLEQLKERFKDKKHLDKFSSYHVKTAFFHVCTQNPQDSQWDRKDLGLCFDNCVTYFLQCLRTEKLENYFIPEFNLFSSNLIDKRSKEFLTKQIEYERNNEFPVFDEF
T1 sequence (Q96SW2 whole entry, looked up): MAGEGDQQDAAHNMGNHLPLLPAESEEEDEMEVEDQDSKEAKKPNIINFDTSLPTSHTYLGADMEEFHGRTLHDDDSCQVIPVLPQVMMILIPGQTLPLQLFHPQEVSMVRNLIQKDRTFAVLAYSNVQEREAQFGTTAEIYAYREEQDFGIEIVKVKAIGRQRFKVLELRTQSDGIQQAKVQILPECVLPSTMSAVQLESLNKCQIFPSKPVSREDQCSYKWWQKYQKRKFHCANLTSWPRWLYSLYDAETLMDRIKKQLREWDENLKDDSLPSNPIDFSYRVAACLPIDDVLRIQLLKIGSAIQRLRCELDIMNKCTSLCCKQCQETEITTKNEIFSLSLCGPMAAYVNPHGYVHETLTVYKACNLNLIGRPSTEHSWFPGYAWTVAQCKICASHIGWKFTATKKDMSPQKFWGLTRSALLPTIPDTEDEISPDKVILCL
T2 sequence (Q8C6L5 whole entry, looked up): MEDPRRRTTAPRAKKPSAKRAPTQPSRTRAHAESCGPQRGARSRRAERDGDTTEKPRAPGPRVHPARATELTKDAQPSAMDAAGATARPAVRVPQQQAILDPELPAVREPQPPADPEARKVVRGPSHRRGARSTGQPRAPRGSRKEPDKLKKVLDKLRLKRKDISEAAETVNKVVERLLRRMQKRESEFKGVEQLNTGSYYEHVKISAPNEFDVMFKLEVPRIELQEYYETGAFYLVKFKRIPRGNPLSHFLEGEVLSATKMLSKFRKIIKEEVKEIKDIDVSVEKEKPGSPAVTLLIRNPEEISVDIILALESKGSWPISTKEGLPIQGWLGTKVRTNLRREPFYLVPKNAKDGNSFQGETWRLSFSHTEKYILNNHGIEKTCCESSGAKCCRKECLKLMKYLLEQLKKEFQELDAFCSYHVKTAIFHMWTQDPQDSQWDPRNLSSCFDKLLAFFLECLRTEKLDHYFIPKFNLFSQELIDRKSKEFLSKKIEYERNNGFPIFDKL
T2 sequence (Q8C7D2 whole entry, looked up): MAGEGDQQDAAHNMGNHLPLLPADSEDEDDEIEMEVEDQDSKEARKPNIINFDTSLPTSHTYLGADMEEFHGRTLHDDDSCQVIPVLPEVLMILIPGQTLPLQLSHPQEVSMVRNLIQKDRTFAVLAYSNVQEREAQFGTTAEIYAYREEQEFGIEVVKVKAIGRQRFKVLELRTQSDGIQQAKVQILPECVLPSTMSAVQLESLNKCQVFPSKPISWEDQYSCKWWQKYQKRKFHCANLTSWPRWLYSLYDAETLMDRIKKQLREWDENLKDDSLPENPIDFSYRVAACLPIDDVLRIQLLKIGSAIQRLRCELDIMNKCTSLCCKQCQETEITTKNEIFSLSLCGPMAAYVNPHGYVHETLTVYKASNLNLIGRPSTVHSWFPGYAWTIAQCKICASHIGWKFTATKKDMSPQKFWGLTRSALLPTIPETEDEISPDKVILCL

Structure (SMILES)	Activity [2] [%]	IC50 [3] [µM]	IC50 [4] [µM]	other results
CN1C(=O)CCC(N2Cc3c(C#CCCCC(=O)NCC(=O)N4CCc5[nH]c6c(Cl)c(Cl)cc(-c7ccn(C)n7)c6c5C4)cccc3C2=O)C1=O (stereo not drawn)				Activity [1]: inactive
Cn1ccc(-c2cc(Cl)c(Cl)c3[nH]c4c(c23)CN(C(=O)CNC(=O)CCCCCCNc2cccc3c2C(=O)N(C2CCC(=O)NC2=O)C3=O)CC4)n1 (stereo not drawn)	55.1	16.3	28.3	
Cn1ccc(-c2cc(Cl)c(Cl)c3[nH]c4c(c23)CN(C(=O)CNC(=O)CCCCCC#Cc2cccc3c2CN(C2CCC(=O)NC2=O)C3=O)CC4)n1 (stereo not drawn)	54.4	12.7	25.3	
O=C1CCC(N2C(=O)c3cccc(NCCCCCCCCC(=O)N4CC(Cn5cc(-c6cc(Cl)c(Cl)c7[nH]c8c(c67)CN(C(=O)CO)CC8)cn5)C4)c3C2=O)C(=O)N1 (stereo not drawn)	21.2	> 50	> 50	
Cn1ccc(-c2cc(Cl)c(Cl)c3[nH]c4c(c23)CN(C(=O)CNC(=O)CCCCCCCCCCCNc2cccc3c2C(=O)N(C2CCC(=O)NC2=O)C3=O)CC4)n1 (stereo not drawn)	4.3	> 50	> 50	
Cn1ccc(-c2cc(Cl)c(Cl)c3[nH]c4c(c23)CN(C(=O)CNC(=O)CCCC#Cc2ccc3c(c2)CN(C2CCC(=O)NC2=O)C3=O)CC4)n1 (stereo not drawn)	25.6	> 50	> 50	
Cn1ccc(-c2cc(Cl)c(Cl)c3[nH]c4c(c23)CN(C(=O)CNC(=O)CCCC#Cc2cccc3c2C(=O)N(C2CCC(=O)NC2=O)C3=O)CC4)n1 (stereo not drawn)	56.1	12.8	30.8	
Cn1ccc(-c2cc(Cl)c(Cl)c3[nH]c4c(c23)CN(C(=O)CCCCCCC#Cc2cccc3c2CN(C2CCC(=O)NC2=O)C3=O)CC4)n1 (stereo not drawn)	44.7	28.8	> 50	
Cn1ccc(-c2cc(Cl)c(Cl)c3[nH]c4c(c23)CN(C(=O)CNC(=O)CCCCNc2cccc3c2C(=O)N(C2CCC(=O)NC2=O)C3=O)CC4)n1 (stereo not drawn)	61.5	8.1	16.1	
Cn1ccc(-c2cc(Cl)c(Cl)c3[nH]c4c(c23)CN(C(=O)CNC(=O)CCCNc2cccc3c2C(=O)N(C2CCC(=O)NC2=O)C3=O)CC4)n1 (stereo not drawn)	58.7	12.2	25.6	
Cn1ccc(-c2cc(Cl)c(Cl)c3[nH]c4c(c23)CN(C(=O)CO)CC4)n1		4.1	13.1	Activity [1]: inactive; Activity (THP-1 [5]): 8.3%; Activity (THP-1 [6]): Toxic; inhibition [7]: Active; Minor Changes Observed; Activity (Mus musculus [8]): Active
O=C1CCC(N2C(=O)c3cccc(NCCOCCOCCOCCOCCOCCC(=O)N4CCC(Cn5cc(-c6cc(Cl)c(Cl)c7[nH]c8c(c67)CN(C(=O)CO)CC8)cn5)CC4)c3C2=O)C(=O)N1 (stereo not drawn)	10.4	> 50	> 50	
O=C1CCC(N2C(=O)c3cccc(NCCCC(=O)N4CCC(Cn5cc(-c6cc(Cl)c(Cl)c7[nH]c8c(c67)CN(C(=O)CO)CC8)cn5)CC4)c3C2=O)C(=O)N1 (stereo not drawn)	4.7	> 50	> 50	
O=C1CCC(N2C(=O)c3cccc(NCCCCCCC(=O)N4CCC(Cn5cc(-c6cc(Cl)c(Cl)c7[nH]c8c(c67)CN(C(=O)CO)CC8)cn5)CC4)c3C2=O)C(=O)N1 (stereo not drawn)	44.7	25.8	> 50	
O=C1CCC(N2C(=O)c3cccc(NCCCCCC(=O)N4CCC(Cn5cc(-c6cc(Cl)c(Cl)c7[nH]c8c(c67)CN(C(=O)CO)CC8)cn5)CC4)c3C2=O)C(=O)N1 (stereo not drawn)	57.7	20.5	39.8	
Cn1ccc(-c2cc(Cl)c(Cl)c3[nH]c4c(c23)CN(C(=O)CNC(=O)CCCCCC#Cc2cccc3c2C(=O)N(C2CCC(=O)NC2=O)C3=O)CC4)n1 (stereo not drawn)	57.7	21.4	> 50	
Cn1ccc(-c2cc(Cl)c(Cl)c3[nH]c4c(c23)CN(C(=O)CNC(=O)CCCCCCCNc2cccc3c2C(=O)N(C2CCC(=O)NC2=O)C3=O)CC4)n1 (stereo not drawn)	34.2	29.6	> 50	
Nc1ccc(O)c(C(=O)O)c1				inhibition [9]: Active; Minor Changes Observed; Activity (Mus musculus [10]): Active
Cn1ccc(-c2cc(Cl)c(Cl)c3[nH]c4c(c23)CN(C(=O)CNC(=O)CCCCCCCCCNc2cccc3c2C(=O)N(C2CCC(=O)NC2=O)C3=O)CC4)n1 (stereo not drawn)	12.4	> 50	> 50	
O=C1CCC(N2C(=O)c3cccc(NCCOCCOCCOCCOCCOCCOCCOCCOCCC(=O)N4CCC(Cn5cc(-c6cc(Cl)c(Cl)c7[nH]c8c(c67)CN(C(=O)CO)CC8)cn5)CC4)c3C2=O)C(=O)N1 (stereo not drawn)	4.6	> 50	> 50	
O=C1CCC(N2C(=O)c3cccc(NCCOCCOCC(=O)N4CCC(Cn5cc(-c6cc(Cl)c(Cl)c7[nH]c8c(c67)CN(C(=O)CO)CC8)cn5)CC4)c3C2=O)C(=O)N1 (stereo not drawn)	44.3	33.6	> 50	
O=C1CCC(N2C(=O)c3cccc(NCCCCCC(=O)N4CC(Cn5cc(-c6cc(Cl)c(Cl)c7[nH]c8c(c67)CN(C(=O)CO)CC8)cn5)C4)c3C2=O)C(=O)N1 (stereo not drawn)	36.3	> 50	> 50	
Cn1ccc(-c2cc(Cl)c(Cl)c3[nH]c4c(c23)CN(C(=O)CNC(=O)CCCCCCCCCCNc2cccc3c2C(=O)N(C2CCC(=O)NC2=O)C3=O)CC4)n1 (stereo not drawn)	20.4	38.8	> 50	
Cn1ccc(-c2cc(Cl)c(Cl)c3[nH]c4c(c23)CN(C(=O)CNC(=O)COCCOCCNc2cccc3c2C(=O)N(C2CCC(=O)NC2=O)C3=O)CC4)n1 (stereo not drawn)	46.8	27.4	> 50	
O=C1CCC(N2C(=O)c3cccc(NCCOCCOCCOCC(=O)N4CCC(Cn5cc(-c6cc(Cl)c(Cl)c7[nH]c8c(c67)CN(C(=O)CO)CC8)cn5)CC4)c3C2=O)C(=O)N1 (stereo not drawn)	13.9	> 50	> 50	
Nc1cccc2c1CN(C1CCC(=O)NC1=O)C2=O (stereo not drawn) [LENALIDOMIDE]		> 50	> 50	Activity (THP-1 [5]): 0.3%
Cn1ccc(-c2cc(Cl)c(Cl)c3[nH]c4c(c23)CN(C(=O)CNC(=O)CCCCC#Cc2cccc3c2C(=O)N(C2CCC(=O)NC2=O)C3=O)CC4)n1 (stereo not drawn)	48.5	18.9	> 50	
Cn1ccc(-c2cc(Cl)c(Cl)c3[nH]c4c(c23)CN(C(=O)CNC(=O)CCCCCCCCNc2cccc3c2C(=O)N(C2CCC(=O)NC2=O)C3=O)CC4)n1 (stereo not drawn)	30.4	37.1	> 50	
Cn1ccc(-c2cc(Cl)c(Cl)c3[nH]c4c(c23)CN(C(=O)CNC(=O)CCNc2cccc3c2C(=O)N(C2CCC(=O)NC2=O)C3=O)CC4)n1 (stereo not drawn)	42	35.1	> 50	
